From patent publication US20230406843A1, “Progranulin Modulators and Methods of Using the Same” (ARKUDA THERAPEUTICS, priority 2020, published 2023)
Read-outs that look alike come from different tables or passages of the source.

System: progranulin
Assay: Progranulin induction cellular assay (ELISA of secreted mouse PGRN)
Assay type: cell-based
Experimental: Cellular Assays: Progranulin induction assay. To measure the efficacy of compounds, a progranulin induction cellular assay in mouse primary microglia (pMG), primary cortical neurons, and BV-2 cell lines is used. BV-2 cells are split the day before plating into a 96 well plate format at approximately 80%. Cells should be plated the day before and allowed for 1 hour attachment period and for 16 hour incubation. Levels of progranulin secreted into the cell culture medium or retained in the cell lysate can be quantified using an ELISA-based readout and measurement of secreted mouse PGRN in the medium was assessed by the methodology published by Ghidoni et al. 2012. Standard ELISA kits to measure PGRN are available from vendors such as Adipogen, R&D, and Biovendor.
Table B below presents the results of a progranulin induction assay as described above.

[1] = progranulin induction assay, mouse pMG, primary cortical neurons and BV-2 cell lines named, cell type not given, ELISA-based readout, read-out: EC50
[2] = Mus musculus, BV-2, read-out: EC50 μM

EC50 [1] | SMILES | EC50 [2]
0.509 µM | NC[C@@H]1CC[C@@H](C(=O)N2CCc3ccccc3[C@@H]2c2ccc(F)cc2)O1 [Compound 5003, ((2S,5S)-5-(aminomethyl)tetrahydrofuran-2-yl)((S)-1-(4-fluorophenyl)-3,4-dihydroisoquinolin-2(1H)-yl)methanone] | –
– | CCNC[C@]1(O)CO[C@H](C(=O)N2CCc3ccccc3[C@@H]2c2ccc(F)cc2)C1 [Compound 5024, ((2S,4S)-4-((ethylamino)methyl)-4-hydroxytetrahydrofuran-2-yl)((S)-1-(4-fluorophenyl)-3,4-dihydroisoquinolin-2(1H)-yl)methanone] | 0.749 µM
0.37 µM | COCCN[C@H]1CC[C@@H](C(=O)N2CCc3ccccc3[C@@H]2c2ccc(F)cc2)OC1 [Compound 5029, ((S)-1-(4-fluorophenyl)-3,4-dihydroisoquinolin-2(1H)-yl)((2S,5S)-5-((2-methoxyethyl)amino)tetrahydro-2H-pyran-2-yl)methanone] | –
0.348 µM | COCCN[C@H]1CC[C@H](C(=O)N2CCc3ccccc3[C@@H]2c2ccc(F)cc2)OC1 [Compound 5030, ((S)-1-(4-fluorophenyl)-3,4-dihydroisoquinolin-2(1H)-yl)((2R,5S)-5-((2-methoxyethyl)amino)tetrahydro-2H-pyran-2-yl)methanone] | –
– | CCNC[C@@]1(O)CO[C@H](C(=O)N2CCc3ccccc3[C@@H]2c2ccc(F)cc2)C1 [Compound 5031, ((2S,4R)-4-((ethylamino)methyl)-4-hydroxytetrahydrofuran-2-yl)((S)-1-(4-fluorophenyl)-3,4-dihydroisoquinolin-2(1H)-yl)methanone] | 0.326 µM
0.213 µM | O=C([C@@H]1CC[C@@H](NCCO)CO1)N1CCc2ccccc2[C@@H]1c1ccc(F)cc1 [Compound 5032, ((S)-1-(4-fluorophenyl)-3,4-dihydroisoquinolin-2(1H)-yl)((2S,5R)-5-((2-hydroxyethyl)amino)tetrahydro-2H-pyran-2-yl)methanone] | –
0.163 µM | O=C([C@@H]1CC[C@H](NCCO)CO1)N1CCc2ccccc2[C@@H]1c1ccc(F)cc1 [Compound 5033, ((S)-1-(4-fluorophenyl)-3,4-dihydroisoquinolin-2(1H)-yl)((2S,5S)-5-((2-hydroxyethyl)amino)tetrahydro-2H-pyran-2-yl)methanone] | –
0.185 µM | O=C([C@H]1CC[C@H](NCCO)CO1)N1CCc2ccccc2[C@@H]1c1ccc(F)cc1 [Compound 5034, ((S)-1-(4-fluorophenyl)-3,4-dihydroisoquinolin-2(1H)-yl)((2R,5S)-5-((2-hydroxyethyl)amino)tetrahydro-2H-pyran-2-yl)methanone] | –
0.371 µM | COCCN[C@@H]1CC[C@@H](C(=O)N2CCc3ccccc3[C@@H]2c2ccc(F)cc2)OC1 [Compound 5035, ((S)-1-(4-fluorophenyl)-3,4-dihydroisoquinolin-2(1H)-yl)((2S,5R)-5-((2-methoxyethyl)amino)tetrahydro-2H-pyran-2-yl)methanone] | –
0.356 µM | CCNC[C@]1(O)CO[C@@H](C(=O)N2CCc3ccccc3[C@@H]2c2ccc(F)cc2)C1 [Compound 5036, ((2R,4S)-4-((ethylamino)methyl)-4-hydroxytetrahydrofuran-2-yl)((S)-1-(4-fluorophenyl)-3,4-dihydroisoquinolin-2(1H)-yl)methanone] | –
0.339 µM | CCNC[C@@]1(O)CO[C@@H](C(=O)N2CCc3ccccc3[C@@H]2c2ccc(F)cc2)C1 [Compound 5037, ((2R,4R)-4-((ethylamino)methyl)-4-hydroxytetrahydrofuran-2-yl)((S)-1-(4-fluorophenyl)-3,4-dihydroisoquinolin-2(1H)-yl)methanone] | –
0.294 µM | O=C([C@H]1C[C@](O)(CNCCO)CO1)N1CCc2ccccc2[C@@H]1c1ccc(F)cc1 [Compound 5041, ((S)-1-(4-fluorophenyl)-3,4-dihydroisoquinolin-2(1H)-yl)((2R,4S)-4-hydroxy-4-(((2-hydroxyethyl)amino)methyl)tetrahydrofuran-2-yl)methanone] | –
0.064 µM | N[C@H]1CO[C@H](C(=O)N2CCc3ccccc3[C@@H]2c2ccc(F)cc2)C[C@H]1O [Compound 5043, ((2S,4R,5S)-5-amino-4-hydroxytetrahydro-2H-pyran-2-yl)((S)-1-(4-fluorophenyl)-3,4-dihydroisoquinolin-2(1H)-yl)methanone] | –
0.575 µM | N[C@H]1CO[C@H](C(=O)N2CCc3ccccc3[C@@H]2c2ccc(F)cc2)OC1 [Compound 5048, (trans-5-amino-1,3-dioxan-2-yl)((S)-1-(4-fluorophenyl)-3,4-dihydroisoquinolin-2(1H)-yl)methanone] | –
0.258 µM | N[C@H]1CO[C@@H](C(=O)N2CCc3ccccc3[C@@H]2c2ccc(F)cc2)OC1 [Compound 5049, (cis-5-amino-1,3-dioxan-2-yl)((S)-1-(4-fluorophenyl)-3,4-dihydroisoquinolin-2(1H)-yl)methanone] | –
0.35 µM | CCN[C@H]1CO[C@@H](C(=O)N2CCc3ccccc3[C@@H]2c2ccc(F)cc2)OC1 [Compound 5050, (cis-5-(ethylamino)-1,3-dioxan-2-yl)((S)-1-(4-fluorophenyl)-3,4-dihydroisoquinolin-2(1H)-yl)methanone] | –
0.006 µM | N[C@H]1C[C@H](C(=O)N2CCc3ccccc3[C@@H]2c2ccc(F)cc2)OC[C@H]1O [Compound 5051, ((2R,4S,5S)-4-amino-5-hydroxytetrahydro-2H-pyran-2-yl)((S)-1-(4-fluorophenyl)-3,4-dihydroisoquinolin-2(1H)-yl)methanone] | –
0.018 µM | N[C@@H]1CO[C@@H](C(=O)N2CCc3ccccc3[C@@H]2c2ccc(F)cc2)C[C@@H]1O [Compound 5052, ((2R,4S,5R)-5-amino-4-hydroxytetrahydro-2H-pyran-2-yl)((S)-1-(4-fluorophenyl)-3,4-dihydroisoquinolin-2(1H)-yl)methanone] | –
0.077 µM | N[C@@H]1CO[C@H](C(=O)N2CCc3ccccc3[C@@H]2c2ccc(F)cc2)C[C@@H]1O [Compound 5053, ((2S,4S,5R)-5-amino-4-hydroxytetrahydro-2H-pyran-2-yl)((S)-1-(4-fluorophenyl)-3,4-dihydroisoquinolin-2(1H)-yl)methanone] | –
0.13 µM | N[C@@H]1C[C@@H](C(=O)N2CCc3ccccc3[C@@H]2c2ccc(F)cc2)OC[C@@H]1O [Compound 5054, ((2S,4R,5R)-4-amino-5-hydroxytetrahydro-2H-pyran-2-yl)((S)-1-(4-fluorophenyl)-3,4-dihydroisoquinolin-2(1H)-yl)methanone] | –
0.056 µM | N[C@H]1C[C@H](C(=O)N2CCc3ccccc3[C@@H]2c2ccc(F)cc2)OC[C@@H]1O [Compound 5055, ((2R,4S,5R)-4-amino-5-hydroxytetrahydro-2H-pyran-2-yl)((S)-1-(4-fluorophenyl)-3,4-dihydroisoquinolin-2(1H)-yl)methanone] | –
0.127 µM | N[C@H]1CO[C@H](C(=O)N2CCc3ccccc3[C@@H]2c2ccc(F)cc2)C[C@@H]1O [Compound 5056, ((2S,4S,5S)-5-amino-4-hydroxytetrahydro-2H-pyran-2-yl)((S)-1-(4-fluorophenyl)-3,4-dihydroisoquinolin-2(1H)-yl)methanone] | –
0.133 µM | N[C@@H]1CO[C@@H](C(=O)N2CCc3ccccc3[C@@H]2c2ccc(F)cc2)C[C@H]1O [Compound 5057, ((2R,4R,5R)-5-amino-4-hydroxytetrahydro-2H-pyran-2-yl)((S)-1-(4-fluorophenyl)-3,4-dihydroisoquinolin-2(1H)-yl)methanone] | –
0.29 µM | N[C@H]1C[C@@H](C(=O)N2CCc3ccccc3[C@@H]2c2ccc(F)cc2)OC[C@H]1O [Compound 5058, ((2S,4S,5S)-4-amino-5-hydroxytetrahydro-2H-pyran-2-yl)((S)-1-(4-fluorophenyl)-3,4-dihydroisoquinolin-2(1H)-yl)methanone] | –
0.344 µM | N[C@H]1CO[C@H](C(=O)N2CCc3ccccc3[C@@H]2c2ccc(F)cc2)C[C@@H]1F [Compound 5059, ((2S,4S,5S)-5-amino-4-fluorotetrahydro-2H-pyran-2-yl)((S)-1-(4-fluorophenyl)-3,4-dihydroisoquinolin-2(1H)-yl)methanone] | –
5.85 µM | N[C@H]1CO[C@H](C(=O)N2CCc3ccccc3[C@@H]2c2ccc(F)cc2)CC1(F)F [Compound 5060, ((2S,5S)-5-amino-4,4-difluorotetrahydro-2H-pyran-2-yl)((S)-1-(4-fluorophenyl)-3,4-dihydroisoquinolin-2(1H)-yl)methanone] | –
0.478 µM | N[C@@H]1CO[C@@H](C(=O)N2CCc3ccccc3[C@@H]2c2ccc(F)cc2)C[C@H]1F [Compound 5061, ((2R,4R,5R)-5-amino-4-fluorotetrahydro-2H-pyran-2-yl)((S)-1-(4-fluorophenyl)-3,4-dihydroisoquinolin-2(1H)-yl)methanone] | –
0.049 µM | CO[C@@H]1CO[C@@H](C(=O)N2CCc3ccccc3[C@@H]2c2ccc(F)cc2)C[C@@H]1N [Compound 5062, ((2R,4S,5S)-4-amino-5-methoxytetrahydro-2H-pyran-2-yl)((S)-1-(4-fluorophenyl)-3,4-dihydroisoquinolin-2(1H)-yl)methanone] | –
0.035 µM | CCO[C@@H]1CO[C@@H](C(=O)N2CCc3ccccc3[C@@H]2c2ccc(F)cc2)C[C@@H]1N [Compound 5063, ((2R,4S,5S)-4-amino-5-ethoxytetrahydro-2H-pyran-2-yl)((S)-1-(4-fluorophenyl)-3,4-dihydroisoquinolin-2(1H)-yl)methanone] | –
0.102 µM | N[C@@H]1CO[C@@H](C(=O)N2CCc3ccccc3[C@@H]2c2ccc(F)cc2)C[C@@H]1F [Compound 5064, ((2R,4S,5R)-5-amino-4-fluorotetrahydro-2H-pyran-2-yl)((S)-1-(4-fluorophenyl)-3,4-dihydroisoquinolin-2(1H)-yl)methanone] | –
